In patent US5593985A, “Cephalosporin compounds” (priority 1994, dated 1997):
Values after ≈ are worked out from the molar mass of the structure shown. Read-outs that look alike come from different tables or passages of the source.

How the values were obtained:
Format in all cases: cell-based
[1] = test system: Streptococcus pyogenes A 308; experiment: MIC, standard strain 1; settings: read-out: Minimal Inhibitory Concentration(MIC)
Method: (§1) In order to illustrate antibiotic effectiveness of the compounds of the present invention, the minimal inhibitory concentrations (MIC's) of the representative compounds were determined against standard strains and compared with ceftazidime and cefpirome, which were used as control compounds.
(§2) The MIC values were taken by employing a two-fold dilution method: that is, two-fold serial dilutions of each of the test compounds were made from initial concentration of […]; each 1.5 ml of them was dispersed in 13.5 ml of Muller Hinton agar medium to adjust to […]; the standard test strain which had the concentration of 10^7 CFU/ml was inoculated by medium;and these were incubated at 37° C. for 18 hours.
(§3) The test used twenty kinds of standard test strains which induced urinary tract infections, respiratory organ infections, skin soft tissue infections, plasma infections, gastrointestinal infections, central nervous system infections, most of which produce β-lactamase. The standard test strains used are as follows:
1. Streptococcus pyogenes A 308

[2] = test system: Streptococcus pyogenes A 77; experiment: MIC, standard strain 2; settings: A77, S. pyogenes A 77, two-fold dilution, Muller Hinton agar, 10^7 CFU/ml, 37° C., 18 hours, read-out: Minimal Inhibitory Concentration(MIC)
Method: as §1, §2, §3
2. Streptococcus pyogenes A 77

[3] = test system: Streptococcus faecium 8b; experiment: MIC, standard strain 3; settings: Enterococcus faecium, read-out: Minimal Inhibitory Concentration(MIC)
Method: as §1, §2, §3
3. Streptococcus faecium 8b

[4] = test system: Staphylococcus aureus SG 511; experiment: MIC, standard strain 4; settings: read-out: Minimal Inhibitory Concentration(MIC)
Method: as §1, §2, §3
4. Staphylococcus aureus SG 511

[5] = test system: Staphylococcus aureus 285; experiment: MIC, standard strain 5; settings: Staphylococcus aureus; S. aureus 285; two-fold dilution, Muller Hinton agar, 10^7 CFU/ml, 37° C., 18 hours; read-out: Minimal Inhibitory Concentration(MIC)
Method: as §1, §2, §3
5. Staphylococcus aureus 285

[6] = test system: Staphylococcus aureus 503; experiment: MIC, standard strain 6; settings: read-out: Minimal Inhibitory Concentration(MIC)
Method: as §1, §2, §3
6. Staphylococcus aureus 503

[7] = test system: Escherichia coli 0 55; experiment: MIC, standard strain 7; settings: 055, E. coli 0 55, two-fold dilution, Muller Hinton agar, 10^7 CFU/ml, 37° C., 18 hours, read-out: Minimal Inhibitory Concentration(MIC)
Method: as §1, §2
(§4) The test used twenty kinds of standard test strains which induced urinary tract infections, respiratory organ infections, skin soft tissue infections, plasma infections, gastrointestinal infections, central nervous system infections, most of which produce β-lactamase.

[8] = test system: Escherichia coli DC 0; experiment: MIC, standard strain 8; settings: DC0, E. coli DC 0, two-fold dilution, Muller Hinton agar, 10^7 CFU/ml, 37° C., 18 hours, read-out: Minimal Inhibitory Concentration(MIC)
Method: as §1, §2, §4

[9] = test system: Escherichia coli DC 2; experiment: MIC, standard strain 9; settings: DC2, E. coli DC 2, two-fold dilution, Muller Hinton agar, 10^7 CFU/ml, 37° C., 18 hours, read-out: Minimal Inhibitory Concentration(MIC)
Method: as §1, §2, §4

[10] = test system: Escherichia coli TEM; experiment: MIC, standard strain 10; settings: 18 h, read-out: Minimal Inhibitory Concentration(MIC)
Method: as §1, §2, §4

[11] = test system: Escherichia coli 1507 E; experiment: MIC, standard strain 11; settings: E. coli 1507 E, two-fold dilution, Muller Hinton agar, 10^7 CFU/ml, 37° C., 18 hours, read-out: Minimal Inhibitory Concentration(MIC)
Method: as §1, §2, §4

[12] = test system: Pseudomonas aeruginosa 9.027; experiment: MIC, standard strain 12; settings: Pseudomonas aeruginosa; P. aeruginosa 9.027; two-fold dilution, Muller Hinton agar, 10^7 CFU/ml, 37° C., 18 hours; read-out: Minimal Inhibitory Concentration(MIC)
Method: as §1, §2, §3
12. Pseudomonas aeruginosa 9.027

[13] = test system: Pseudomonas aeruginosa 1592 E; experiment: MIC, standard strain 13; settings: P. aeruginosa 1592 E, two-fold dilution, Muller Hinton agar, 10^7 CFU/ml, 37° C., 18 hours, read-out: Minimal Inhibitory Concentration(MIC)
Method: as §1, §2, §3
13. Pseudomonas aeruginosa 1592 E

[14] = test system: Pseudomonas aeruginosa 1771; experiment: MIC, standard strain 14; settings: Pseudomonas aeruginosa; P. aeruginosa 1771; two-fold dilution, Muller Hinton agar, 10^7 CFU/ml, 37° C., 18 hours; read-out: Minimal Inhibitory Concentration(MIC)
Method: as §1, §2, §3
14. Pseudomonas aeruginosa 1771

[15] = test system: Pseudomonas aeruginosa 1771M; experiment: MIC, standard strain 15; settings: 18 h, read-out: Minimal Inhibitory Concentration(MIC)
Method: as §1, §2, §3
15. Pseudomonas aeruginosa 1771M

[16] = test system: Salmonella typhimurium; experiment: MIC, standard strain 16; settings: Salmonella enterica, read-out: Minimal Inhibitory Concentration(MIC)
Method: as §1, §2, §3
16. Salmonella typhimurium

[17] = test system: Klebsiella aerogenes 1552 E; experiment: MIC, standard strain 18; settings: K. aerogenes 1552 E, two-fold dilution, Muller Hinton agar, 10^7 CFU/ml, 37° C., 18 hours, read-out: Minimal Inhibitory Concentration(MIC)
Method: as §1, §2, §3
18. Klebsiella aerogenes 1552 E

[18] = test system: Enterobacter cloacae P 99; experiment: MIC, standard strain 19; settings: P99, 18 h, read-out: Minimal Inhibitory Concentration(MIC)
Method: as §1, §2, §3
19. Enterobacter cloacae P 99

[19] = test system: Enterobacter cloacae 1321 E; experiment: MIC, standard strain 20; settings: read-out: Minimal Inhibitory Concentration(MIC)
Method: as §1, §2, §3
20. Enterobacter cloacae 1321 E

[20] = A308, S. pyogenes A 308, two-fold dilution, Muller Hinton agar, 10^7 CFU/ml, 37° C., 18 hours
[21] = S. faecium 8b, two-fold dilution, Muller Hinton agar, 10^7 CFU/ml, 37° C., 18 hours
[22] = SG511, S. aureus SG 511, two-fold dilution, Muller Hinton agar, 10^7 CFU/ml, 37° C., 18 hours
[23] = Staphylococcus aureus, S. aureus 503, two-fold dilution, Muller Hinton agar, 10^7 CFU/ml, 37° C., 18 hours
[24] = S. typhimurium, two-fold dilution, Muller Hinton agar, 10^7 CFU/ml, 37° C., 18 hours
[25] = E. cloacae 1321 E, two-fold dilution, Muller Hinton agar, 10^7 CFU/ml, 37° C., 18 hours

SMILES	MIC [1, 20] [µg/mL]	MIC [2] [µg/mL]	MIC [3, 21] [µg/mL]	MIC [4, 22] [µg/mL]	MIC [5] [µg/mL]	MIC [6, 23] [µg/mL]	MIC [7] [µg/mL]	MIC [8] [µg/mL]	MIC [9] [µg/mL]	MIC [10] [µg/mL]	MIC [11] [µg/mL]	MIC [12] [µg/mL]	MIC [13] [µg/mL]	MIC [14] [µg/mL]	MIC [15] [µg/mL]	MIC [16, 24] [µg/mL]	MIC [17] [µg/mL]	MIC [18] [µg/mL]	MIC [19, 25] [µg/mL]	also measured
NC(=O)c1cc[n+](CC2=C(C(=O)[O-])N3C(=O)[C@@H](NC(=O)/C(=N\OCCF)c4csc(N)n4)[C@H]3SC2)c2c1CCC2 [Example 14, 7-β-[(Z)-2-(2-aminothiazol-4-yl)-2-(2-fluoroethoxyimino)acetamido]-3-[(2,3-cyclopenteno-4-carbamoyl-l-pyridinium)methyl]-3-cephem-4-carboxylate]	13 (≈ 22 µM)	13 (≈ 22 µM)	25000 (≈ 42400 µM)	781 (≈ 1320 µM)	3120 (≈ 5300 µM)	781 (≈ 1320 µM)	13 (≈ 22 µM)	49 (≈ 83.1 µM)	49 (≈ 83.1 µM)	98 (≈ 166 µM)	49 (≈ 83.1 µM)	6250 (≈ 10600 µM)	6250 (≈ 10600 µM)	781 (≈ 1320 µM)	391 (≈ 663 µM)	49 (≈ 83.1 µM)	49 (≈ 83.1 µM)	12500 (≈ 21200 µM)		MIC ([19]; 1321E, 18 h): 25 µg/mL (≈ 42.4 µM)
CO/N=C(\C(=O)N[C@@H]1C(=O)N2C(C(=O)[O-])=C(C[n+]3ccc(NC(C)=O)c4c3CCC4)CS[C@H]12)c1csc(N)n1 [Example 17, 7-β-[(Z)-2-(2-aminothiazol-4-yl)-2-methoxyiminoacetamido]-3-[(4-acetamido-2,3-cyclopenteno-1-pyridinium)methyl]-3-cephem-4-carboxylate]		< 2		781 (≈ 1370 µM)	1560 (≈ 2730 µM)		25 (≈ 43.7 µM)	13 (≈ 22.7 µM)	13 (≈ 22.7 µM)	25 (≈ 43.7 µM)	25 (≈ 43.7 µM)	12500 (≈ 21900 µM)	6250 (≈ 10900 µM)	6250 (≈ 10900 µM)	1560 (≈ 2730 µM)	49 (≈ 85.7 µM)	13 (≈ 22.7 µM)	12500 (≈ 21900 µM)	13 (≈ 22.7 µM)	MIC ([1]; A308, 18 h): < 2 µg/mL; MIC ([3]; 8B, 18 h): 100000 µg/mL (≈ 175000 µM); MIC ([6]; Staphylococcus aureus, 503, 18 h): 195 µg/mL (≈ 341 µM)
CO/N=C(\C(=O)N[C@@H]1C(=O)N2C(C(=O)[O-])=C(C[n+]3ccc(NC=O)c4c3CCC4)CS[C@H]12)c1csc(N)n1 [Example 19]	< 2	< 2	25000 (≈ 44800 µM)	391 (≈ 701 µM)	391 (≈ 701 µM)	98 (≈ 176 µM)	7 (≈ 12.6 µM)	13 (≈ 23.3 µM)	13 (≈ 23.3 µM)	49 (≈ 87.9 µM)	98 (≈ 176 µM)	12500 (≈ 22400 µM)	12500 (≈ 22400 µM)	12500 (≈ 22400 µM)	1560 (≈ 2800 µM)	195 (≈ 350 µM)	49 (≈ 87.9 µM)	12500 (≈ 22400 µM)	7 (≈ 12.6 µM)	
CO/N=C(\C(=O)N[C@@H]1C(=O)N2C(C(=O)[O-])=C(C[n+]3ccc(-c4nc(C)cs4)c4c3CCC4)CS[C@H]12)c1csc(N)n1 [Example 25, 7-β-[(Z)-2-(2-aminothiazol-4-yl)-2-methoxyiminoacetamido]-3-[(2,3-cyclopenteno-4-(4-methylthiazol-2-yl)-1-pyridinium)methyl]-3-cephem-4-carboxylate]	4 (≈ 6.54 µM)	2 (≈ 3.27 µM)	12500 (≈ 20400 µM)		781 (≈ 1280 µM)	195 (≈ 319 µM)	195 (≈ 319 µM)	25 (≈ 40.9 µM)	25 (≈ 40.9 µM)	391 (≈ 639 µM)	781 (≈ 1280 µM)	100000 (≈ 163000 µM)	50000 (≈ 81700 µM)	50000 (≈ 81700 µM)	1560 (≈ 2560 µM)		781 (≈ 1280 µM)	25000 (≈ 40900 µM)	98 (≈ 160 µM)	MIC ([4]; SG511, 18 h): 391 µg/mL (≈ 639 µM); MIC ([16]; TYPHIMURIUM, 18 h): 391 µg/mL (≈ 639 µM)
